Reference: patent US12565467B2, “Compounds, compositions, and methods for the treatment of inflammatory, degenerative, and neurodegenerative diseases” (Board of Supervisors of Louisiana State University and …, priority 2015, dated 2026)

Legend:
Bcl-xL = Bcl-xL protein in ARPE-19 cells under oxidative stress; assay type: cell-based, human; conditions: ARPE-19 cells under OS
Procedure: (§1) FIG. 8. (A) Bcl-xL-upregulation by elovanoids ELV1 and ELV2 in ARPE-19 cells under stress. Bcl-xL is the antiapoptotic Bcl2 family protein. Like proapoptotic proteins Bid and Bim, the effect of elovaniod precursors on the antiapoptotic protein Bcl-xL was tested in this figure in RPE cells under OS. […] (B) Effect of NPD1, ELV1 and ELV2 on Bax expression in LOX-D cells under stress. Proapoptotic Bax was tested in this figure. […] C) VLC-PUFA and elovanoids ELV1 and ELV2 mediated effect on Bax upregulation in ARPE-19 cells under stress. In this experiment, elovanoid precursors along with VLC-PUFA were tested on the downregulation of the Bax protein in RPE cells under stress.
as §1, with “8—(A)” for “8. (A)”

[1] = tested on: human retinal pigment epithelial (RPE) cells deficient in 15-LOX-D1; test: Oxidative stress (OS) induced apoptosis / cell death in 15-LOX-1-deficient human RPE cells; assay type: cell-based
Source text: (§2) FIG. 4. (A) Cytoprotective effects of NPD1 like compounds on OS induced apoptosis. The results shown in this figure compare the cytoprotective capacities of long chain polyunsaturated fatty acids (VLC-PUFA), elovanoids ELV1 and ELV2, and neuroprotectin D1 (NPD1) in human retinal pigment epithelial (RPE) cells deficient in 15-LOX-D1 by measuring the protection of cell deaths induced by oxidative stress (OS) by these compounds. […] (B) Elovanoid precursors protect human retinal pigment epithelial cells deficient in 15-LOX-1, unlike DHA, from oxidative stress conditions.
FIG. 5. (A) Effect of PD146176 on VLC-PUFA-inhibited apoptosis induced by OS in ARPE-19 cells. […] It is evident that 32:6 and 34:6 LCAF were able to induce a substantial amount (55 and 48% respectively) of neuroprotection compared to PD 146176 (22%) when the stressed cells were treated with 5 μm of 15-LOX-D1 inhibitor. It can be concluded that since PD146176 is the inhibitor of 15-lipooxygenase enzyme, it might be protecting the stressed RPE cells by accumulating neuroprotective agents inside the cells. (B) Comparison of cytoprotective capacities of NPD1, C32:6 and C34:6 VLC-PUFA on oxidative stress-induced apoptosis in 15-LOX-1 cells. Shown here is the comparison of neuroprotection in a 15-LOX-1-deficient cell line under oxidative stress with 32:6 and 34:6 VLC-PUFA along with NPD1. 32:6 and 34:6 LCAF were able to induce neuroprotection (45% and 40% respectively), as compared to oxidative stress (90%) under this condition. (C) Concentration dependent cytoprotection by C32:6 and C34:6 VLC-PUFA in oxidative-stress induced ARPE-19 cells. A concentration (50-500 nM) kinetic of cytoprotection induced by LCAF 32:6 and 34:6 in RPE cell culture under OS was shown here. […] We decided to use 250 nM concentrations of 32:6 and 34:6 LCAF in subsequent experiments. (D) Selected images of alive and dead cells from this study (control, OS, treatment with C32:6).
as §2, with “Evidence of cytoprotection by 32.6 and 34.6 VLC-PUFA in oxidative-stress induced ARPE-19 cells as detailed in (FIG. 4): (A) Cytoprotective” for “FIG. 4. (A) Cytoprotective”, “capacities of very long chain” for “capacities of long chain”
FIG. 5—(A) Effect of PD146176 on VLC-PUFA inhibited apoptosis induced by OS in ARPE-19 cells. […] It is evident that 32:6 and 34:6 LCAF were able to induce a substantial amount (55 and 48% respectively) of neuroprotection compared to PD 146176 (22%) when the stressed cells were treated with 5 μm of 15-LOX-D1 inhibitor. It can be concluded that since PD146176 is the inhibitor of 15-lipooxygenase enzyme, it might be protecting the stressed RPE cells by accumulating neuroprotective agents inside the cells. (B) Comparison of cytoprotective capacities of NPD1, C32:6 and C34:6 VLC-PUFA on oxidative stress-induced apoptosis in 15-LOX-1 cells. Shown here is the comparison of neuroprotection in a 15-LOX-1-deficient cell line under oxidative stress with 32:6 and 34:6 VLC-PUFA along with NPD1. 32:6 and 34:6 VLC-PUFA were able to induce neuroprotection (45% and 40% respectively), as compared to oxidative stress (90%) under this condition. (C) Concentration dependent cytoprotection by C32:6 and C34:6 VLC-PUFA in oxidative-stress induced ARPE-19 cells. A concentration (50-500 nM) kinetic of cytoprotection induced by VLC-PUFA 32:6 and 34:6 in RPE cell culture under OS was shown here. […] We decided to use 250 nM concentrations of 32:6 and 34:6 VLC-PUFA in subsequent experiments. […]

CC/C=C\C[C@H](O)\C=C/C=C/C=C/[C@H](O)C/C=C\C/C=C\CCCCCCCCCCCCCCC(=O)O [ELV2, (16Z,19Z,22R,23E,25E,27Z,29S,31Z)-22,29-dihydroxytetratriaconta-16,19,23,25,27,31-hexaenoic acid]
effect on antiapoptotic Bcl-xL protein (FIG. 8A) (Bcl-xL): potent upregulation
activity against OS relative to the related VLC-PUFA (FIG. 4) ([1]; as sodium salts or methyl esters): more potent activity against OS than the related VLC-PUFA

CC/C=C\C/C=C\C/C=C\C/C=C\C/C=C\C/C=C\CCCCCCCCCCCCCCC(=O)O [C34:6]
neuroprotection (FIG. 5B) ([1]; 15-LOX-1-deficient cell line under oxidative stress, compared to oxidative stress (90%)): 40%
protection against cell death under oxidative stress conditions (FIG. 4B) ([1]; 15-LOX-D1 cells under oxidative stress): protect against cell death
